Broadly, the EC50 is the concentration that produces a half-maximal response.

In this experiment the target is STING (Homo sapiens, UniProt Q86WV6, G230A/H232R/R293Q/R71H). The experiment is described as follows: STING reporter assay in THP1-Dual KO-IFNAR2 cells (2′3′cGAMP stimulation, luciferase reporter). The format is cell-based. To be noted: 15 μM 2′3′cGAMP stimulation, 24 h, read-out: Pharmaron, THP1_IFNAR2 STING 24 h Luci Normalized: GeoMean EC50. Put shortly: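 EC50 from secreted luciferase (QUANTI-Luc Plus luminescence of supernatant) after 24 h at 37 °C, 5% CO2. Cells: THP1-Dual KO-IFNAR2, treated with compound (0.0017-100 μM final) plus lipofected 2′3′cGAMP at 15 μM final.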
Sequence of STING (Q86WV6 whole entry R71H/G230A/H232R/R293Q): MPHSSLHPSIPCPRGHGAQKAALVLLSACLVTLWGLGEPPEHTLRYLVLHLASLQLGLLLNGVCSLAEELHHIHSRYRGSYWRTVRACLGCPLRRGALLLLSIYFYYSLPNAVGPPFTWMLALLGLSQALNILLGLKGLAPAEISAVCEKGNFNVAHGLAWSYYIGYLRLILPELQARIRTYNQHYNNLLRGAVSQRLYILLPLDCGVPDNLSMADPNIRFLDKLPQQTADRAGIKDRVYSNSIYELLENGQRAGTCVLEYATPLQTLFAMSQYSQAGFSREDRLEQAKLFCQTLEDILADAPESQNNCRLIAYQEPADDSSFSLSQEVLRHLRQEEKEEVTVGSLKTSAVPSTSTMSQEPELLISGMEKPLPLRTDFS
In general terms: A reporter such as luciferase makes a cellular process visible.
For `CC(=O)Nc1c[nH]c2ccc(CCOc3ccccc3C3(C)CCN(CC(F)(F)F)CC3)cc12` [Compound 208, N-(5-(2-(2-(4-methyl-1-(2,2,2-trifluoroethyl)piperidin-4-yl)phenoxy)ethyl)-1H-indol-3-yl)acetamide], the EC50 fell in the range of 1000 to 5000 nM.
In the case of `C[C@H]1C[C@@H](C(=O)Nc2c[nH]c3ccc(OCc4ccc(C(F)(F)F)cc4)cc23)C1` [Compound 321, cis-3-methyl-N-(5-((4-(trifluoromethyl)benzyl)oxy)-1H-indol-3-yl)cyclobutane-1-carboxamide], the EC50 fell in the range of 200 to 1000 nM.
Consider `CC1(C(=O)Nc2c[nH]c3ccc(OCCc4ccc(C(F)(F)F)cc4)cc23)CCOCC1` [Compound 237, 4-methyl-N-(5-(4-(trifluoromethyl)phenethoxy)-1H-indol-3-yl)tetrahydro-2H-pyran-4-carboxamide], for which the EC50 lay within 40 to 200 nM.
The value for `CC1(C(=O)Nc2c[nH]c3ccc(OCCc4ccc(C(F)(F)F)cc4)cc23)CCOC1` (centres unmarked) [Compound 189, 3-methyl-N-(5-(4-(trifluoromethyl)phenethoxy)-1H-indol-3-yl)tetrahydrofuran-3-carboxamide] was 200 to 1000 nM.
To `CC(=O)Nc1c[nH]c2ccc(CCOc3cccc(CC#N)c3)cc12` [Compound 453, N-(5-{2-[3-(cyanomethyl)phenoxy]ethyl}-1H-indol-3-yl)acetamide] belongs 1000 to 5000 nM; to `O=C(Nc1c[nH]c2ccc(CCOc3ccc(C(F)(F)F)cc3)cc12)C1CC(Cl)C1` (centres unmarked) [Compound 177, 3-chloro-N-(5-(2-(4-(trifluoromethyl)phenoxy)ethyl)-1H-indol-3-yl)cyclobutane-1-carboxamide], 200 to 1000 nM.
On to `C[C@H]1C[C@@H](C(=O)Nc2c[nH]c3ccc(O[C@H]4C[C@@H](c5ccc(C(F)(F)F)cc5)C4)cc23)C1` [Compound 335, cis-3-methyl-N-(5-(cis-3-(4-(trifluoromethyl)phenyl)cyclobutoxy)-1H-indol-3-yl)cyclobutane-1-carboxamide], for which the EC50 lay in the range of 200 to 1000 nM.
The value for `O=C(Nc1c[nH]c2ccc(CCNc3ccc(C(F)(F)F)cn3)cc12)C1CCC1` [Compound 134, N-(5-(2-((5-(trifluoromethyl)pyridin-2-yl)amino)ethyl)-1H-indol-3-yl)cyclobutanecarboxamide] was 200 to 1000 nM; that for `COCC1(C(=O)Nc2c[nH]c3ccc(CCOc4ccc(C(F)(F)F)cc4)cc23)CC1` [Compound 176, 1-(methoxymethyl)-N-(5-{2-[4-(trifluoromethyl)phenoxy]ethyl}-1H-indol-3-yl)cyclopropane-1-carboxamide] was 200 to 1000 nM.
To `CO[C@H]1C[C@](C)(C(=O)Nc2c[nH]c3ccc(OCC[C@@H]4C[C@@H]5CN(CC(F)(F)F)C[C@@H]5C4)cc23)C1` [Compound 427, trans-3-methoxy-1-methyl-N-(5-(2-((3aR,5r,6aS)-2-(2,2,2-trifluoroethyl)octahydrocyclopenta[c]pyrrol-5-yl)ethoxy)-1H-indol-3-yl)cyclobutane-1-carboxamide] belongs 200 to 1000 nM; to `CC(=O)Nc1c[nH]c2ccc(OCCC34CC(c5ccccc5)(C3)C4)cc12` [Compound 262, N-(5-(2-(3-phenylbicyclo[1.1.1]pentan-1-yl)ethoxy)-1H-indol-3-yl)acetamide], 40 to 200 nM; to `O=C(Nc1c[nH]c2ccc(CCOc3ccc(C(F)(F)F)cc3)cc12)C1CCOCC1` [Compound 401, N-(5-(2-(4-(trifluoromethyl)phenoxy)ethyl)-1H-indol-3-yl)tetrahydro-2H-pyran-4-carboxamide], 200 to 1000 nM.
Take `C[C@]1(C(=O)Nc2c[nH]c3ccc(OCCc4ccc(C(F)(F)F)cc4)cc23)C[C@H](O)C1` [Compound 446, trans-3-hydroxy-1-methyl-N-(5-(4-(trifluoromethyl)phenethoxy)-1H-indol-3-yl)cyclobutane-1-carboxamide]: the EC50 fell in the range of 40 to 200 nM.
The value for `COCCN1CC(C(=O)Nc2c[nH]c3ccc(OCCc4ccc(C(F)(F)F)cc4)cc23)C1` [Compound 298, 1-(2-methoxyethyl)-N-(5-(4-(trifluoromethyl)phenethoxy)-1H-indol-3-yl)azetidine-3-carboxamide] was 200 to 1000 nM.

The values above are taken from patent US12503436B2, “Compounds and compositions for treating conditions associated with STING activity” (NOVARTIS PHARMA AG, priority 2021, dated 2025).
